Measured values as given in the Kinase Knowledgebase extract (Sharma et al. 2016).

biological target: PIK3CA (human) (UniProt P42336); experiment: Inhibition of PIK3CA Kinase Activity
Sequence (P42336 whole entry, looked up): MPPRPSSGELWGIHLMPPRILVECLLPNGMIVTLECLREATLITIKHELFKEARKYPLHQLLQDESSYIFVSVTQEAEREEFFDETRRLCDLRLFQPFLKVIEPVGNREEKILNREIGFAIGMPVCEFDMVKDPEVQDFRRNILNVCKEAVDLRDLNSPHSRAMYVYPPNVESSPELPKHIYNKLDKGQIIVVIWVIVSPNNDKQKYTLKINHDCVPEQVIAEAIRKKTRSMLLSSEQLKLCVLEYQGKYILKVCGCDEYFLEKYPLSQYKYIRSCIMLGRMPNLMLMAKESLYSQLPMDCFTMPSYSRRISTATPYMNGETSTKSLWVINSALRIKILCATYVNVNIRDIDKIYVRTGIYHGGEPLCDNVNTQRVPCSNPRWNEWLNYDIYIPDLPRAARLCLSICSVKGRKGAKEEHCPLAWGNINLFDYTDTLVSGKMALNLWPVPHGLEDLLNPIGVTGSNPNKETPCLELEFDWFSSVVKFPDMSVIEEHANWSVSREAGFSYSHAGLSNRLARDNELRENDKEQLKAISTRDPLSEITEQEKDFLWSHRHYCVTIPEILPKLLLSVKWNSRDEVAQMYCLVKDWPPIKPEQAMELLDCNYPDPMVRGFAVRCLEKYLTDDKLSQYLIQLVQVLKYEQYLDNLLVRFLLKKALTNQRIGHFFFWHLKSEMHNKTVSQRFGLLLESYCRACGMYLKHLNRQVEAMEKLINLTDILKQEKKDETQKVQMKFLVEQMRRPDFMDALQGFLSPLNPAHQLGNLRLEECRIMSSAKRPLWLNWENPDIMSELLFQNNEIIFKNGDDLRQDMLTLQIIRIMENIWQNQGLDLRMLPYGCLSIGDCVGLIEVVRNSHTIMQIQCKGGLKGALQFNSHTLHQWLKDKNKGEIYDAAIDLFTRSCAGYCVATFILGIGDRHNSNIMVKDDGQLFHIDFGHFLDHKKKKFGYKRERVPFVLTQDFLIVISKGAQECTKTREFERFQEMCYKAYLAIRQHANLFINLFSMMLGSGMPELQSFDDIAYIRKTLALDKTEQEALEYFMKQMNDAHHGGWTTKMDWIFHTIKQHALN

SMILES	IC50
Cc1nc2ncc(-c3ccc4c(c3)CN(c3nc(CNS(C)(=O)=O)nc5c3CC(C)(C)CC5)CCO4)cc2[nH]1	≤ 10 nM
CCNc1nc2ccc(-c3ccc4c(c3)CN(c3ncnc(Nc5ccc(OC)cc5)c3C)CCO4)cc2[nH]1	10 to 50 nM
CC1(C)CCc2ncnc(N3CCOc4ccc(-c5cncc(NS(C)(=O)=O)c5)cc4C3)c2C1	50 to 250 nM
Cc1nc(N)nc(N2CCOc3ccc(-c4cnc5sc(N)nc5c4)cc3C2)c1Cc1ccc(F)cc1	≤ 10 nM
CN(C)Cc1nc2c(c(N3CCOc4ccc(-c5cnc6sc(N)nc6c5)cc4C3)n1)CC(C)(C)CC2	≤ 10 nM
CCC1CCc2ncnc(N3CCOc4ccc(-c5ccc6nc(C)[nH]c6c5)cc4C3)c2C1 (stereo not drawn)	10 to 50 nM
COc1ccc2c(N3CCOc4ccc(-c5cnc6sc(N)nc6c5)cc4C3)nc(C)nc2c1	≤ 10 nM
CCNCc1nc2c(c(N3CCOc4ccc(-c5ccc6nc(C)[nH]c6c5)cc4C3)n1)CC(C)(C)CC2	≤ 10 nM
Cc1nc2ccc(-c3ccc4c(c3)CN(c3ncnc5cc(Cl)ccc35)CCO4)cc2[nH]1	50 to 250 nM
CCC1CCc2ncnc(N3CCOc4ccc(-c5cnc6nc(N)[nH]c6c5)cc4C3)c2C1 (stereo not drawn)	≤ 10 nM
Cc1ncnc(N2CCOc3ccc(-c4ccc5sc(N)nc5c4)cc3C2)c1Cc1ccc(F)cc1	50 to 250 nM
COc1c(O)ccc2c(N3CCOc4ccc(-c5ccc6nc(C)[nH]c6c5)cc4C3)ncnc12	10 to 50 nM
CCNc1nc2ccc(-c3ccc4c(c3)CN(c3ccnc5c(F)cccc35)CCO4)cc2[nH]1	≤ 10 nM
C=CCc1c(C)nc(CN(C)C)nc1N1CCOc2ccc(-c3ccc4nc(C)[nH]c4c3)cc2C1	≤ 10 nM
CC1(C)CCc2ncnc(N3CCOc4ccc(-c5cnc(N)c(S(=O)(=O)NC[C@@H]6CCCN6)c5)cc4C3)c2C1	50 to 250 nM
COc1ccc2ncnc(N3CCOc4ccc(-c5cnc6nc(N)[nH]c6c5)cc4C3)c2c1	≤ 10 nM
CC(C)Nc1nc2ccc(-c3ccc4c(c3)CN(c3ccnc5ccccc35)CCO4)cc2[nH]1	250 to 1000 nM
CC1(C)CCc2ncnc(N3CCOc4ccc(-c5cnc(N)c(S(=O)(=O)NC[C@@H]6CCCNC6)c5)cc4C3)c2C1	50 to 250 nM
COc1c(OCC(C)C)ccc2c(N3CCOc4ccc(-c5ccc6nc(C)[nH]c6c5)cc4C3)ncnc12	50 to 250 nM
Nc1nc2ccc(-c3ccc4c(c3)CN(c3nc(-c5ccccc5)nc5ccccc35)CCO4)cc2[nH]1	50 to 250 nM
CC1(C)CCc2ncnc(N3CCOc4ccc(-c5cnc(N)c(S(N)(=O)=O)c5)cc4C3)c2C1	≤ 10 nM
CC1(C)CCc2ncnc(N3CCOc4ccc(-c5cnc(N)c(S(=O)(=O)N6CCCC(N)C6)c5)cc4C3)c2C1 (stereo not drawn)	50 to 250 nM

SMILES	IC50
Cc1nc2ccc(-c3ccc4c(c3)CN(c3nc(CN(C)C)nc(C)c3C)CCO4)cc2[nH]1	10 to 50 nM
Cc1nc2ncc(-c3ccc4c(c3)CN(c3ncnc5c3CCC(CO)C5)CCO4)cc2[nH]1 (stereo not drawn)	10 to 50 nM
CC1=Cc2ncnc(N3CCOc4ccc(-c5cnc(N)c(S(=O)(=O)NCC(C)(C)N)c5)cc4C3)c2CC1(C)C	10 to 50 nM
Cc1nc2ccc(-c3ccc4c(c3)CN(c3nc(CN(C)C)nc(C)c3CC3CC3)CCO4)cc2[nH]1	10 to 50 nM
COc1ccc2c(N3CCOc4ccc(-c5ccc(OC)c(OC)c5)cc4C3)nc(CN(C)C)nc2c1	10 to 50 nM
Cc1cccc(Cl)c1S(=O)(=O)Nc1cc(-c2ccc3c(c2)CN(c2ncnc4c2CC(C)(C)CC4)CCO3)cnc1Cl	50 to 250 nM
Cc1ncnc(N2CCOc3ccc(-c4ccc5nc(N)nn5c4)cc3C2)c1Cc1ccc(F)cc1	50 to 250 nM
CC1(C)CCc2ncnc(N3CCOc4ccc(-c5cnc(N)c(S(=O)(=O)N6CCCC(O)C6)c5)cc4C3)c2C1 (stereo not drawn)	10 to 50 nM
Cc1nc2ccc(-c3ccc4c(c3)CN(c3ncnc5cc(I)ccc35)CCO4)cc2[nH]1	10 to 50 nM
COc1ccccc1Cc1c(C)ncnc1N1CCOc2ccc(-c3ccc4nc(C)[nH]c4c3)cc2C1	50 to 250 nM
CNS(=O)(=O)c1cc(-c2ccc3c(c2)CN(c2ncnc(C)c2Cc2ccc(F)cc2)CCO3)cnc1N	50 to 250 nM
Cc1c(NC2CCOCC2)ncnc1N1CCOc2ccc(-c3cnc4nc(C5CC5)[nH]c4c3)cc2C1	50 to 250 nM
CC1(C)CCc2ncnc(N3CCOc4ccc(-c5cnc(N)c(S(=O)(=O)NCC(F)(F)F)c5)cc4C3)c2C1	50 to 250 nM
COc1ccc2c(N3CCOc4ccc(-c5cnc6nc(C)[nH]c6c5)cc4C3)ncnc2c1	≤ 10 nM
CCNc1nc2ccc(-c3ccc4c(c3)CN(c3ncnc(C)c3Cc3ccc(F)cc3)CCO4)cc2[nH]1	≤ 10 nM
CCNc1ncnc(N2CCOc3ccc(-c4cnc5nc(C)[nH]c5c4)cc3C2)c1C	10 to 50 nM
CN(C)C1CN(S(=O)(=O)c2cc(-c3ccc4c(c3)CN(c3ncnc5c3CC(C)(C)CC5)CCO4)cnc2N)C1	50 to 250 nM
COC(=O)Nc1nc2ccc(-c3ccc4c(c3)CN(c3nc(C)nc5ccccc35)CCO4)cc2[nH]1	10 to 50 nM
Nc1nc2ncc(-c3ccc4c(c3)CN(c3ncnc5ccc(Cl)cc35)CCO4)cc2[nH]1	≤ 10 nM
Cc1nc2cc(-c3ccc4c(c3)CN(c3nc(N)nc(C)c3Cc3ccc(F)cc3)CCO4)cnc2[nH]1	≤ 10 nM
CC1(C)CCc2ncnc(N3CCOc4ccc(-c5cnc(N)c(S(=O)(=O)NCC6(N)CC6)c5)cc4C3)c2C1	50 to 250 nM
